Experimental data as given in patent US20140301980A1, “METHODS FOR THE TREATMENT OF PSORIATIC ARTHRITIS USING APREMILAST” (CELGENE CORPORATION, priority 2013, published 2014).

Tests used:
[1] = tested on: patients with psoriatic arthritis (PsA); assay: Phase II randomized, double-blind, placebo controlled, multicenter clinical study in psoriatic arthritis; settings: for Subjects reporting a serious AE (SAE): 12 week study period
Experimental: A phase II, randomized, double-blind, placebo controlled, multicenter clinical study was performed in North America and Europe in patients with psoriatic arthritis (PsA). […] Mean duration of PsA was 7.8 years; mean tender joint count of 22, mean swollen joint count of 10 at baseline (Moll & Wright criteria). […] Stable doses of NSAIDs, corticosteroids (≦10 mg/day prednisone or equivalent), and methotrexate were allowed.

[2] = tested on: adult patients with active PsA; assay: Phase III clinical study PALACE 3 in active psoriatic arthritis (PASI-75); assay type: in vivo, human; settings: patients with psoriatic involvement of at least three percent BSA
Experimental: (§1) The safety and efficacy of apremilast was evaluated in three multi-center, randomized, double-blind, placebo-controlled trials (Studies PALACE 1, PALACE 2, and PALACE 3) of similar design. A total of 1493 adult patients with active PsA (≧3 swollen joints and ≧3 tender joints) despite prior or current treatment with disease-modifying antirheumatic drug (DMARD) therapy were randomized. […] One qualifying psoriatic skin lesion of at least 2 cm in diameter was required in PALACE 3. Previous treatment with a biologic, including TNF-blockers was allowed.
Across the 3 studies, patients were randomly assigned to placebo (n=496), apremilast 20 mg (n=500), or apremilast 30 mg (n=497) given orally twice daily. Patients were allowed to receive stable doses of concomitant methotrexate (MTX) (≦25 mg/week), sulfasalazine (SSZ) (≦2 g/day), leflunomide (LEF) (≦20 mg/day), low dose oral corticosteroids (equivalent to ≦10 mg of prednisone a day), and/or nonsteroidal anti-inflammatory drugs (NSAIDs) during the trial. […]
The primary endpoint was the percentage of patients achieving American College of Rheumatology (ACR) 20 response at Week 16. Placebo-controlled efficacy data were collected and analyzed through Week 24. […]
Patients with psoriatic involvement of at least three percent body surface area (BSA) were evaluated for Psoriatic Area and Severity Index (PASI)-75 responses. […]

[3] = tested on: adult patients with active PsA; assay: Phase III clinical study PALACE 1 in active psoriatic arthritis; assay type: in vivo, human; settings: for Patients achieving remission, DAS28(CRP) less than 2.6: N=168; for Physician's global assessment of disease activity, % Change (percent improvement) / Subject's assessment of pain, % Change (percent improvement) / Subject's global assessment of disease activity, % Change (percent improvement): VAS; for Number of swollen joints, % Change (percent improvement): scale 0-76; for Number of tender joints, % Change (percent improvement): scale 0-78; for Proportion of patients with ACR 20 response / Proportion of patients with ACR 50 response / Proportion of patients with ACR 70 response: N = 168
Experimental: as §1
(§2) Across the 3 studies, patients were randomly assigned to placebo (n=496), apremilast 20 mg (n=500), or apremilast 30 mg (n=497) given orally twice daily. Patients were allowed to receive stable doses of concomitant methotrexate (MTX) (≦25 mg/week), sulfasalazine (SSZ) (≦2 g/day), leflunomide (LEF) (≦20 mg/day), low dose oral corticosteroids (equivalent to ≦10 mg of prednisone a day), and/or nonsteroidal anti-inflammatory drugs (NSAIDs) during the trial. Treatment assignments were stratified based on small-molecule DMARD use at baseline. The patients who were therapeutic failures of >3 agents for PsA (small molecules or biologics), or >1 biologic TNF blocker were excluded.
(§3) The primary endpoint was the percentage of patients achieving American College of Rheumatology (ACR) 20 response at Week 16. Placebo-controlled efficacy data were collected and analyzed through Week 24. Patients with each subtype of PsA were enrolled across the 3 studies, including symmetric polyarthritis (62.0%), asymmetric oligoarthritis (26.9%), distal interphalangeal (DIP) joint arthritis (6.2%), arthritis mutilans (2.7%), and predominant spondylitis (2.1%). The median duration of PsA disease was 5 years. Patients received concomitant therapy with at least one DMARD (65.2%), MTX (54.5%), SSZ (9.0%), LEF (7.4%), low dose oral corticosteroids (13.9%), and NSAIDs (70.7%). Prior treatment with small-molecule DMARDs only was reported in 76.4% of patients and prior treatment with biologic DMARDs was reported in 22.4% of patients.

[4] = tested on: adult patients with active PsA; assay: Phase III clinical studies PALACE 1-3, study not specified; assay type: in vivo, human
Experimental: as §1, §2, §3

## CCOc1cc([C@@H](CS(C)(=O)=O)N2C(=O)c3cccc(NC(C)=O)c3C2=O)ccc1OC [apremilast, (+)-2-[1-(3-ethoxy-4-methoxyphenyl)-2-methylsulfonylethyl]-4-acetylaminoisoindoline-1,3-dione]
[1]; 20 mg BID
  Discontinuations due to AEs: 9%
  Discontinuations due to lack of efficacy: 7%
  Subjects reporting a serious AE (SAE): 4 subjects
  Primary endpoint, ACR20 at 12 weeks: met
[1]; 20 mg BID, evaluable subjects, 24 weeks
  ACR20 at 24 weeks: 40%
[1]; 40 mg QD
  Discontinuations due to AEs: 6%
  Discontinuations due to lack of efficacy: 0%
  Subjects reporting a serious AE (SAE): 0 subjects
  Primary endpoint, ACR20 at 12 weeks: met
[1]; 40 mg QD, evaluable subjects, 24 weeks
  ACR20 at 24 weeks: 39.1%
[1]; active-drug extension, weeks 12-24
  Subjects reporting an SAE in the extension: 7 subjects
[1]; placebo subjects switched to 20 mg BID in the extension
  ACR20 at 24 weeks: 35%
[1]; placebo subjects switched to 40 mg QD in the extension
  ACR20 at 24 weeks: 40%
[1]; whole study
  Deaths: no deaths
[2]; Week 16, 30 BID
  Proportion of patients achieving PASI-75: 22.2%
[2]; Week 24, 30 BID
  Proportion of patients achieving PASI-75: 25.6%
[3]; Week 16
  Proportion of HAQ-DI responders (≧0.3 change from baseline) compared to placebo: greater proportion
[3]; Week 16, 30 mg BID with or without DMARDs
  Patients achieving remission, DAS28(CRP) less than 2.6: 13.1%
[3]; Week 16, 30 mg BID ± DMARDs
  CRP, % Change (percent improvement): 12.40%
  HAQ-DI score, % Change (percent improvement): 20.00%
  Physician's global assessment of disease activity, % Change (percent improvement): 42.31%
  Subject's assessment of pain, % Change (percent improvement): 26.00%
  Subject's global assessment of disease activity, % Change (percent improvement): 20.29%
  Number of swollen joints, % Change (percent improvement): 50.00%
  Number of tender joints, % Change (percent improvement): 43.17%
[3]; Week 16, apremilast alone (29/62 patients)
  ACR 20 response rate: 46.8%
[3]; Week 16, biologic-naive patients, concomitant with DMARD (51/124 patients)
  ACR 20 response rate: 41.1%
[3]; Week 16, concomitant with DMARD (35/106 patients)
  ACR 20 response rate: 33.0%
[3]; Week 16, previously treated with small molecule and/or biologic DMARD (11/41 patients)
  ACR 20 response rate: 26.8%
[3]; Week 16, ± DMARDs
  Proportion of patients with ACR 20 response: 38.1%
  Proportion of patients with ACR 50 response: 16.1%
  Proportion of patients with ACR 70 response: 4.2%
[3]; Week 24, 30 mg BID for up to 24 weeks, independent of response at Week 16
  ACR 20 response rate: 43.5%
[3]; Week 24, 30 mg BID with or without DMARDs
  Patients achieving remission, DAS28(CRP) less than 2.6: 19.0%
[3]; Week 24, 30 mg BID ± DMARDs
  CRP, % Change (percent improvement): 8.45%
  HAQ-DI score, % Change (percent improvement): 20.00%
  Physician's global assessment of disease activity, % Change (percent improvement): 35.90%
  Subject's assessment of pain, % Change (percent improvement): 27.67%
  Subject's global assessment of disease activity, % Change (percent improvement): 23.92%
  Number of swollen joints, % Change (percent improvement): 50.00%
  Number of tender joints, % Change (percent improvement): 44.83%
[3]; Week 24, ± DMARDs
  Proportion of patients with ACR 20 response: 35.1%
  Proportion of patients with ACR 50 response: 19.0%
  Proportion of patients with ACR 70 response: 10.1%
[3]; baseline to Week 16, p=0.0017 vs placebo
  Change in mean HAQ-DI score from baseline: −0.244
[4]; human, in vivo
  Mental Component Summary score (MCS), mean change from baseline: No worsening
  SF-36v2 physical functioning domain and physical component summary score, change from baseline compared to placebo: greater improvement
[4]; patients with pre-existing dactylitis or enthesitis
  Dactylitis and enthesitis: improvement
